Laboratory results reported in PubChem BioAssay (NCI).
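These data come from cells grown in 96-well plates and exposed to compound for 48 hours at five concentrations. At the TGI there is no net growth.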

Legend:
Assay in all cases: growth of human tumour cells (NCI), 48 h
[1] = test system: SF-539 CNS
[2] = test system: M19-MEL melanoma
[3] = test system: SW-620 colon
[4] = test system: MOLT-4 leukemia
[5] = test system: RPMI-8226 leukemia
[6] = test system: MALME-3M melanoma
[7] = test system: KM20L2 colon
[8] = test system: DMS 114 small cell lung
[9] = test system: 786-0 renal
[10] = test system: KM12 colon
[11] = test system: NCI-H460 lung
[12] = test system: HOP-18 NSCLC
[13] = test system: HOP-92 NSCLC
[14] = test system: EKVX NSCLC
[15] = test system: DLD-1 colon
[16] = test system: COLO 205 colon
[17] = test system: HL-60(TB) leukemia
[18] = test system: SNB-19 CNS
[19] = test system: UACC-62 melanoma
[20] = test system: HCT-116 colon
[21] = test system: SK-OV-3 ovarian
[22] = test system: OVCAR-4 ovarian
[23] = test system: UACC-257 melanoma
[24] = test system: NCI-H226 lung
[25] = test system: SN12C renal
[26] = test system: K-562 leukemia
[27] = test system: SK-MEL-2 melanoma
[28] = test system: A549 NSCLC
[29] = test system: OVCAR-8 ovarian
[30] = test system: IGROV1 ovarian
[31] = test system: A498 renal
[32] = test system: SNB-75 CNS
[33] = test system: M14 melanoma
[34] = test system: SK-MEL-28 melanoma
[35] = test system: LOX IMVI melanoma
[36] = test system: TK-10 renal
[37] = test system: NCI-H522 lung
[38] = test system: CAKI-1 renal
[39] = test system: HOP-62 NSCLC
[40] = test system: LXFL 529 NSCLC
[41] = test system: DMS 273 small cell lung
[42] = test system: RXF-631 renal
[43] = test system: OVCAR-3 ovarian
[44] = test system: HT29 colon
[45] = test system: ACHN renal
[46] = test system: NCI-H23 lung
[47] = test system: CCRF-CEM leukemia
[48] = test system: SK-MEL-5 melanoma
[49] = test system: UO-31 renal
[50] = test system: HCT-15 colon
[51] = test system: SF-268 CNS
[52] = test system: SF-295 CNS
[53] = test system: U251 CNS
[54] = test system: RXF 393 renal
[55] = test system: SNB-78 CNS
[56] = test system: HCC-2998 colon
[57] = test system: OVCAR-5 ovarian
[58] = test system: XF 498 CNS
[59] = test system: MDA-MB-435
[60] = test system: DU-145 prostate
[61] = test system: SR leukemia
[62] = test system: MDA-MB-231 breast
[63] = test system: BT-549 breast
[64] = test system: HS 578T breast
[65] = test system: T-47D breast
[66] = test system: MDA-N
[67] = test system: NCI/ADR-RES ovarian
[68] = test system: MCF7 breast
[69] = test system: PC-3 prostate

NC(CCCNCc1ccccc1)C(=O)O (stereo not drawn)
TGI [1]: > 100 µM | TGI [2]: > 100 µM | TGI [3]: > 100 µM | TGI [4]: > 100 µM | TGI [5]: > 100 µM | TGI [6]: > 100 µM | TGI [7]: > 100 µM | TGI [8]: > 100 µM | TGI [9]: > 100 µM | TGI [10]: > 100 µM | TGI [11]: > 100 µM | TGI [12]: > 100 µM | TGI [13]: > 100 µM | TGI [14]: > 100 µM | TGI [15]: > 100 µM | TGI [16]: > 100 µM | TGI [17]: > 100 µM | TGI [18]: > 100 µM | TGI [19]: > 100 µM | TGI [20]: > 100 µM | TGI [21]: > 100 µM | TGI [22]: > 100 µM | TGI [23]: > 100 µM | TGI [24]: > 100 µM | TGI [25]: > 100 µM | TGI [26]: > 100 µM | TGI [27]: > 100 µM | TGI [28]: > 100 µM | TGI [29]: > 100 µM | TGI [30]: > 100 µM | TGI [31]: > 100 µM | TGI [32]: > 100 µM | TGI [33]: > 100 µM | TGI [34]: > 100 µM | TGI [35]: > 100 µM | TGI [36]: > 100 µM | TGI [37]: > 100 µM | TGI [38]: > 100 µM | TGI [39]: > 100 µM | TGI [40]: > 100 µM | TGI [41]: > 100 µM | TGI [42]: > 100 µM | TGI [43]: > 100 µM | TGI [44]: > 100 µM | TGI [45]: > 100 µM | TGI [46]: > 100 µM | TGI [47]: > 100 µM | TGI [48]: > 100 µM | TGI [49]: > 100 µM | TGI [50]: > 100 µM | TGI [51]: > 100 µM

CCC1(CN(C)C)CC/C(=C\c2ccc(OC)cc2)C1=O (stereo not drawn)
TGI [52]: > 100 µM | TGI [1]: > 100 µM | TGI [2]: > 100 µM | TGI [53]: > 100 µM | TGI [3]: > 100 µM | TGI [4]: > 100 µM | TGI [5]: > 100 µM | TGI [6]: > 100 µM | TGI [7]: > 100 µM | TGI [8]: > 100 µM | TGI [9]: > 100 µM | TGI [10]: > 100 µM | TGI [11]: > 100 µM | TGI [12]: > 100 µM | TGI [13]: > 100 µM | TGI [14]: > 100 µM | TGI [15]: > 100 µM | TGI [16]: > 100 µM | TGI [54]: > 100 µM | TGI [55]: > 100 µM | TGI [18]: > 100 µM | TGI [19]: > 100 µM | TGI [20]: > 100 µM | TGI [22]: > 100 µM | TGI [23]: > 100 µM | TGI [24]: > 100 µM | TGI [56]: > 100 µM | TGI [25]: > 100 µM | TGI [26]: > 100 µM | TGI [27]: > 100 µM | TGI [28]: > 100 µM | TGI [29]: > 100 µM | TGI [30]: > 100 µM | TGI [57]: > 100 µM | TGI [31]: > 100 µM | TGI [32]: > 100 µM | TGI [33]: > 100 µM | TGI [34]: > 100 µM | TGI [35]: > 100 µM | TGI [36]: > 100 µM | TGI [37]: > 100 µM | TGI [38]: > 100 µM | TGI [39]: > 100 µM | TGI [40]: > 100 µM | TGI [41]: > 100 µM | TGI [42]: > 100 µM | TGI [43]: > 100 µM | TGI [44]: > 100 µM | TGI [45]: > 100 µM | TGI [46]: > 100 µM | TGI [47]: > 100 µM | TGI [48]: > 100 µM | TGI [49]: > 100 µM | TGI [50]: > 100 µM | TGI [51]: > 100 µM

C#CCN(Cc1ccc2nc(-c3ccccc3)c(Cl)nc2c1)c1cc(OC)c(OC)c(OC)c1
TGI [52]: > 100 µM | TGI [1]: > 100 µM | TGI [2]: > 100 µM | TGI [53]: > 100 µM | TGI [3]: 34.2 µM | TGI [4]: > 100 µM | TGI [5]: 43.5 µM | TGI [6]: > 100 µM | TGI [7]: > 100 µM | TGI [8]: 51.8 µM | TGI [9]: > 100 µM | TGI [10]: > 100 µM | TGI [11]: > 100 µM | TGI [12]: > 100 µM | TGI [13]: > 100 µM | TGI [14]: > 100 µM | TGI [15]: > 100 µM | TGI [16]: > 100 µM | TGI [17]: > 100 µM | TGI [54]: > 100 µM | TGI [55]: > 100 µM | TGI [18]: > 100 µM | TGI [19]: > 100 µM | TGI [20]: > 100 µM | TGI [21]: > 100 µM | TGI [22]: > 100 µM | TGI [23]: > 100 µM | TGI [24]: > 100 µM | TGI [56]: > 100 µM | TGI [25]: > 100 µM | TGI [26]: > 100 µM | TGI [27]: > 100 µM | TGI [28]: > 100 µM | TGI [29]: > 100 µM | TGI [30]: > 100 µM | TGI [57]: > 100 µM | TGI [31]: > 100 µM | TGI [32]: > 100 µM | TGI [33]: > 100 µM | TGI [34]: > 100 µM | TGI [35]: 40.4 µM | TGI [36]: > 100 µM | TGI [37]: > 100 µM | TGI [38]: > 100 µM | TGI [39]: > 100 µM | TGI [40]: > 100 µM | TGI [41]: > 100 µM | TGI [42]: > 100 µM | TGI [43]: > 100 µM | TGI [44]: > 100 µM | TGI [45]: > 100 µM | TGI [46]: > 100 µM | TGI [47]: > 100 µM | TGI [48]: > 100 µM | TGI [49]: > 100 µM | TGI [50]: > 100 µM | TGI [51]: > 100 µM

O=c1oc2ccccc2c(O)c1C(C/C(CCN1CCCC1)=N/O)c1ccccc1 (stereo not drawn)
TGI [58]: > 100 µM | TGI [52]: > 100 µM | TGI [1]: > 100 µM | TGI [59]: > 100 µM | TGI [2]: > 100 µM | TGI [53]: > 100 µM | TGI [3]: > 100 µM | TGI [4]: > 100 µM | TGI [60]: > 100 µM | TGI [5]: > 100 µM | TGI [6]: > 100 µM | TGI [7]: > 100 µM | TGI [8]: > 100 µM | TGI [9]: > 100 µM | TGI [10]: > 100 µM | TGI [61]: > 100 µM | TGI [11]: > 100 µM | TGI [62]: > 100 µM | TGI [13]: > 100 µM | TGI [14]: > 100 µM | TGI [15]: > 100 µM | TGI [16]: > 100 µM | TGI [17]: > 31.6 µM | TGI [54]: > 100 µM | TGI [18]: > 100 µM | TGI [19]: > 100 µM | TGI [20]: > 100 µM | TGI [21]: > 100 µM | TGI [22]: > 100 µM | TGI [23]: > 100 µM | TGI [63]: > 100 µM | TGI [64]: > 100 µM | TGI [24]: > 100 µM | TGI [56]: > 100 µM | TGI [65]: > 100 µM | TGI [25]: > 100 µM | TGI [26]: > 31.6 µM | TGI [27]: > 100 µM | TGI [28]: > 100 µM | TGI [29]: > 100 µM | TGI [30]: > 100 µM | TGI [57]: > 100 µM | TGI [31]: > 100 µM | TGI [32]: > 100 µM | TGI [33]: > 100 µM | TGI [34]: > 100 µM | TGI [66]: > 100 µM | TGI [35]: > 100 µM | TGI [36]: > 100 µM | TGI [37]: > 100 µM | TGI [38]: > 100 µM | TGI [39]: > 100 µM | TGI [40]: > 100 µM | TGI [67]: > 100 µM | TGI [68]: > 100 µM | TGI [69]: > 100 µM | TGI [42]: > 100 µM | TGI [43]: > 100 µM | TGI [44]: > 100 µM | TGI [45]: > 100 µM | TGI [46]: > 100 µM | TGI [48]: > 100 µM | TGI [49]: > 100 µM | TGI [50]: > 100 µM | TGI [51]: > 100 µM
